# From patent publication US6737383B1, “Herbicidal oxadiazolidines” (priority 1999, dated 2004)
# How the values were obtained:
# wild oat = test: Test B pre/postemergence wild oat; format: in vivo, Avena fatua; settings: for Plant response rating, Wild oats: scale of 0 to 10 where 0 is no effect and 10 is complete control
# How it was run: (§1)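 Test chemicals in a non-phytotoxic solvent mixture with surfactant were sprayed preemergence onto planted seeds and postemergence onto plants 2 to 18 cm tall (1- to 4-leaf stage). After twelve to sixteen days in a greenhouse, injury was visually rated against untreated controls from 0 (no effect) to 10 (complete control).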
# crabgrass = test: Test B pre/postemergence crabgrass; format: in vivo, Digitaria sanguinalis
# How it was run: as §1
# purple nutsedge = test: Test B pre/postemergence purple nutsedge; format: in vivo, Cyperus rotundus; settings: for Plant response rating, Nutsedge: scale of 0 to 10 where 0 is no effect and 10 is complete control
# How it was run: as §1
# cocklebur = test: Test B pre/postemergence cocklebur; format: in vivo, Xanthium strumarium
# How it was run: as §1
# pigweed = test: Test B pre/postemergence pigweed; format: in vivo, Amaranthus retroflexus; settings: for Plant response rating, Redroot pigweed: scale of 0 to 10 where 0 is no effect and 10 is complete control
# How it was run: as §1
# surinam grass = test: Test B pre/postemergence surinam grass; format: in vivo, Brachiaria decumbens
# How it was run: as §1
# sugar beet = test: Test B pre/postemergence sugar beet; format: in vivo, Beta vulgaris; settings: for Plant response rating, Sugarbeets: scale of 0 to 10 where 0 is no effect and 10 is complete control
# How it was run: as §1
# rice = test: Test B flood test rice; format: in vivo, Oryza sativa
# How it was run: (§2)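 Each value is a visual injury score relative to controls, with 10 meaning complete control and 0 no effect. Evaluation took place twelve to sixteen days after the 2-leaf-stage plants were treated and kept in the greenhouse.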
# smallflower flatsedge = test: Test B flood test smallflower flatsedge; format: in vivo, Cyperus difformis
# How it was run: as §2
# blackgrass = test: Test B pre/postemergence blackgrass; format: in vivo, Alopecurus myosuroides
# How it was run: as §1
# duck salad = test: Test B flood test duck salad; format: in vivo, Heteranthera limosa
# How it was run: as §2
# wheat = test: Test B pre/postemergence wheat; format: in vivo, Triticum aestivum; settings: for Plant response rating, Wheat: scale of 0 to 10 where 0 is no effect and 10 is complete control
# How it was run: as §1
# corn = test: Test B pre/postemergence corn; format: in vivo, Zea mays
# How it was run: as §1
# giant foxtail = test: Test B pre/postemergence giant foxtail; format: in vivo, Setaria faberii
# How it was run: as §1
# velvetleaf = test: Test B pre/postemergence velvetleaf; format: in vivo, Abutilon theophrasti; settings: for Plant response rating, Velvetleaf: scale of 0 to 10 where 0 is no effect and 10 is complete control
# How it was run: as §1
# soybean = test: Test B pre/postemergence soybean; format: in vivo, Glycine max; settings: for Plant response rating, Soybean: scale of 0 to 10 where 0 is no effect and 10 is complete control
# How it was run: as §1
# bamyardgrass = test: Test B flood test barnyardgrass; format: in vivo, Echinochloa crus-galli
# How it was run: as §2
# rape = test: Test B pre/postemergence rape; format: in vivo, Brassica napus; settings: for Plant response rating, Rape: scale of 0 to 10 where 0 is no effect and 10 is complete control
# How it was run: as §1
# morningglory = test: Test B pre/postemergence morningglory; format: in vivo, Ipomoea hederacea; settings: for Plant response rating, Morningglory: scale of 0 to 10 where 0 is no effect and 10 is complete control
# How it was run: as §1
# [1] = Postemergence, Rate 250 g/ha, scale 0 to 10
# [2] = Preemergence, Rate 250 g/ha, scale 0 to 10, 0 is no effect, 10 is complete control
# [3] = Preemergence, Rate 500 g/ha, scale 0 to 10, 0 is no effect, 10 is complete control
# [4] = Rate 62 g/ha, Postemergence, scale 0 to 10 (0 no effect, 10 complete control)
# [5] = Rate 125 g/ha, Postemergence, scale 0 to 10, 0 is no effect, 10 is complete control
# [6] = Postemergence, Rate 500 g/ha, scale of 0 to 10 where 0 is no effect and 10 is complete control
# [7] = Preemergence, Rate 62 g/ha, scale of 0 to 10 where 0 is no effect and 10 is complete control
# [8] = Preemergence, Rate 125 g/ha, scale of 0 to 10 where 0 is no effect and 10 is complete control
# [9] = Rate 62 g/ha, flood test species, Pre-emergence, visual evaluation after twelve to sixteen days
# [10] = Rate 125 g/ha, under heading Pre-emergence, flood test species, visual evaluation after twelve to sixteen days
# [11] = Rate 250 g/ha, Pre-emergence (flood test species), scale 0 to 10, 0 is no effect, 10 is complete control
# [12] = Rate 500 g/ha, Pre-emergence, flood test species, scale 0 to 10 (0 no effect, 10 complete control)
compound,measurement,setting,value
COC(CCl)n1c(=O)on(C(=O)N(c2ccc(Cl)cc2)C(C)C)c1=O (stereo not shown) [Compound 458],Wild oats plant response rating,wild oat; [1],2
same,"Plant response rating, Wild oats","wild oat; Preemergence, Rate 62 g/ha",0
same,"Plant response rating, Wild oats","wild oat; Preemergence, Rate 125 g/ha",2
same,Wild oats plant response rating,wild oat; [2],3
same,Wild oats plant response rating,wild oat; [3],10
same,Wild oats plant response rating,wild oat; [4],0
same,Wild oats plant response rating,wild oat; [5],0
same,Crabgrass plant response rating,crabgrass; [1],8
same,Crabgrass plant response rating,crabgrass; [6],9
same,"Plant response rating, Crabgrass",crabgrass; [7],6
same,"Plant response rating, Crabgrass",crabgrass; [8],6
same,Crabgrass plant response rating,crabgrass; [2],9
same,Crabgrass plant response rating,crabgrass; [3],10
same,Crabgrass plant response rating,crabgrass; [4],2
same,Crabgrass plant response rating,crabgrass; [5],8
same,Nutsedge plant response rating,purple nutsedge; [1],0
same,"Plant response rating, Nutsedge","purple nutsedge; Preemergence, Rate 62 g/ha",0
same,"Plant response rating, Nutsedge","purple nutsedge; Preemergence, Rate 125 g/ha",0
same,Nutsedge plant response rating,purple nutsedge; [2],0
same,Nutsedge plant response rating,purple nutsedge; [3],0
same,Nutsedge plant response rating,purple nutsedge; [4],0
same,Nutsedge plant response rating,purple nutsedge; [5],0
same,Cocklebur plant response rating,cocklebur; [1],0
same,Cocklebur plant response rating,cocklebur; [6],2
same,"Plant response rating, Cocklebur",cocklebur; [7],0
same,"Plant response rating, Cocklebur",cocklebur; [8],0
same,Cocklebur plant response rating,cocklebur; [2],0
same,Cocklebur plant response rating,cocklebur; [3],0
same,Cocklebur plant response rating,cocklebur; [4],0
same,Cocklebur plant response rating,cocklebur; [5],0
same,Redroot pigweed plant response rating,pigweed; [1],0
same,"Plant response rating, Redroot pigweed","pigweed; Preemergence, Rate 62 g/ha",0
same,"Plant response rating, Redroot pigweed","pigweed; Preemergence, Rate 125 g/ha",3
same,Redroot pigweed plant response rating,pigweed; [2],6
same,Redroot pigweed plant response rating,pigweed; [3],8
same,Redroot pigweed plant response rating,pigweed; [4],0
same,Redroot pigweed plant response rating,pigweed; [5],0
same,B. signalgrass plant response rating,"surinam grass; Postemergence, Rate 250 g/ha, scale 0 to 10, 0 no effect, 10 complete control",0
same,B. signalgrass plant response rating,surinam grass; [6],3
same,"Plant response rating, B. signalgrass",surinam grass; [7],4
same,"Plant response rating, B. signalgrass",surinam grass; [8],4
same,B. signalgrass plant response rating,surinam grass; [2],4
same,B. signalgrass plant response rating,surinam grass; [3],4
same,B. signalgrass plant response rating,surinam grass; [4],0
same,B. signalgrass plant response rating,surinam grass; [5],0
same,Sugarbeets plant response rating,sugar beet; [1],0
same,"Plant response rating, Sugarbeets","sugar beet; Preemergence, Rate 62 g/ha",0
same,"Plant response rating, Sugarbeets","sugar beet; Preemergence, Rate 125 g/ha",0
same,Sugarbeets plant response rating,sugar beet; [2],2
same,Sugarbeets plant response rating,sugar beet; [3],8
same,Sugarbeets plant response rating,sugar beet; [4],0
same,Sugarbeets plant response rating,sugar beet; [5],0
same,"Plant response rating, Rice (0 to 10 scale, 0 is no effect, 10 is complete control)",rice; [9],0
same,"Rice plant response rating (0 to 10 scale, 0 is no effect, 10 is complete control)",rice; [10],0
same,Rice plant response rating,rice; [11],0
same,Rice plant response rating,rice; [12],0
same,"Plant response rating, S. Flatsedge (0 to 10 scale, 0 is no effect, 10 is complete control)",smallflower flatsedge; [9],0
same,"S. Flatsedge plant response rating (0 to 10 scale, 0 is no effect, 10 is complete control)",smallflower flatsedge; [10],0
same,S. Flatsedge plant response rating,smallflower flatsedge; [11],0
same,S. Flatsedge plant response rating,smallflower flatsedge; [12],0
same,Blackgrass plant response rating,blackgrass; [1],8
same,Blackgrass plant response rating,blackgrass; [6],8
same,"Plant response rating, Blackgrass",blackgrass; [7],6
same,"Plant response rating, Blackgrass",blackgrass; [8],8
same,Blackgrass plant response rating,blackgrass; [2],8
same,Blackgrass plant response rating,blackgrass; [3],9
same,Blackgrass plant response rating,blackgrass; [4],0
same,Blackgrass plant response rating,blackgrass; [5],3
same,"Plant response rating, Ducksalad (0 to 10 scale, 0 is no effect, 10 is complete control)",duck salad; [9],0
same,"Ducksalad plant response rating (0 to 10 scale, 0 is no effect, 10 is complete control)",duck salad; [10],0
same,Ducksalad plant response rating,duck salad; [11],0
same,Ducksalad plant response rating,duck salad; [12],0
same,Wheat plant response rating,wheat; [1],2
same,"Plant response rating, Wheat","wheat; Preemergence, Rate 62 g/ha",0
same,"Plant response rating, Wheat","wheat; Preemergence, Rate 125 g/ha",0
same,Wheat plant response rating,wheat; [2],0
same,Wheat plant response rating,wheat; [3],2
same,Wheat plant response rating,wheat; [4],0
same,Wheat plant response rating,wheat; [5],0
same,Corn plant response rating,corn; [1],2
same,Corn plant response rating,corn; [6],2
same,"Plant response rating, Corn",corn; [7],0
same,"Plant response rating, Corn",corn; [8],0
same,Corn plant response rating,corn; [2],0
same,Corn plant response rating,corn; [3],3
same,Corn plant response rating,corn; [4],0
same,Corn plant response rating,corn; [5],0
same,Giant foxtail plant response rating,giant foxtail; [1],9
same,Giant foxtail plant response rating,giant foxtail; [6],9
same,"Plant response rating, Giant foxtail",giant foxtail; [7],9
same,"Plant response rating, Giant foxtail",giant foxtail; [8],9
same,Giant foxtail plant response rating,giant foxtail; [2],10
same,Giant foxtail plant response rating,giant foxtail; [3],10
same,Giant foxtail plant response rating,giant foxtail; [4],7
same,Giant foxtail plant response rating,giant foxtail; [5],9
same,Velvetleaf plant response rating,velvetleaf; [1],0
same,"Plant response rating, Velvetleaf","velvetleaf; Preemergence, Rate 62 g/ha",0
same,"Plant response rating, Velvetleaf","velvetleaf; Preemergence, Rate 125 g/ha",0
same,Velvetleaf plant response rating,velvetleaf; [2],2
same,Velvetleaf plant response rating,velvetleaf; [3],6
same,Velvetleaf plant response rating,velvetleaf; [4],0
same,Velvetleaf plant response rating,velvetleaf; [5],0
same,Soybean plant response rating,soybean; [1],2
same,"Plant response rating, Soybean","soybean; Preemergence, Rate 62 g/ha",0
same,"Plant response rating, Soybean","soybean; Preemergence, Rate 125 g/ha",0
same,Soybean plant response rating,soybean; [2],0
same,Soybean plant response rating,soybean; [3],2
same,Soybean plant response rating,soybean; [4],0
same,Soybean plant response rating,soybean; [5],1
same,"Plant response rating, Barnyardgrass (0 to 10 scale, 0 is no effect, 10 is complete control)",bamyardgrass; [9],0
same,"Barnyardgrass plant response rating (0 to 10 scale, 0 is no effect, 10 is complete control)",bamyardgrass; [10],0
same,Barnyardgrass plant response rating,bamyardgrass; [11],0
same,Barnyardgrass plant response rating,bamyardgrass; [12],0
same,Rape plant response rating,rape; [1],0
same,"Plant response rating, Rape","rape; Preemergence, Rate 62 g/ha",0
same,"Plant response rating, Rape","rape; Preemergence, Rate 125 g/ha",0
same,Rape plant response rating,rape; [2],3
same,Rape plant response rating,rape; [3],4
same,Rape plant response rating,rape; [4],0
same,Rape plant response rating,rape; [5],0
same,Morningglory plant response rating,morningglory; [1],3
same,"Plant response rating, Morningglory","morningglory; Preemergence, Rate 62 g/ha",0
same,"Plant response rating, Morningglory","morningglory; Preemergence, Rate 125 g/ha",0
same,Morningglory plant response rating,morningglory; [2],0
same,Morningglory plant response rating,morningglory; [3],0
same,Morningglory plant response rating,morningglory; [4],0
same,Morningglory plant response rating,morningglory; [5],0
